These results are taken from patent US20040033936A1, “Production, stabilisation and use of reduced forms of pharmaceutical compounds” (priority 2000, published 2004).

The nature of data set [1]: Qualitative assessment of reduction of methylene blue in aqueous solution (visual colour change blue to colourless). It is filed as physicochemical. As to conditions: for Rate/extent of reduction: neutral, final pH about 6.5; for Rate of reduction: compared to neutral pH. On the procedure:
In aqueous solution, the oxidised form of methylene blue has a deep blue coloration, and the reduced (leuco) form is colourless and clear. Reduction of methylene blue can therefore be determined by observation of a colour change from blue to colourless. In the present experiments, the colour change was measured by eye against a white background, but instrumentation, e.g. a visible range spectrophotometer, could also be used.
Individual reducing agents or combinations of reducing agents were added to a solution of methylene blue. […] Reduction of methylene blue was assessed by visual observation of colour change. […] The pH of the final solution of methylene blue and reducing agent(s) was about pH 6.5 in each case (here referred to as “neutral”).
Individual reducing agents or combinations of reducing agents were added, in solution; to a methylene blue solution which had been made either acid or alkaline using acetic acid or sodium hydroxide, respectively. The effect of pH on reduction of methylene blue was determined. Reduction of methylene blue was assessed by visual observation of colour change. The rate of reduction (if any) was compared to the rates of reduction at neutral pH.
In the present context, “acid” refers to a pH adjusted to approximately 3.7 using acetic acid, and “alkali” refers to a pH adjusted to approximately 9.8 using sodium hydroxide. The results are as follows: […]

Data set [2] is described as follows: Qualitative assessment of reduction of thionine in aqueous solution (visual colour change blue/purple to colourless). It is filed as physicochemical. As to conditions: thionine 50 mg/30 ml; reducing agents 250 mg/3 ml. On the procedure:
The following reducing agents or combinations of reducing agents (250 mg/3 ml) were added to an aqueous solution of thionine (50 mg/30 mU. Reduction of thionine was determined by visual observation of colour change from blue/purple to colourless. All experiments used 1.67 mg/mI (50 mg/30 ml) thionine solution. Ascorbic acid, L-cysteine or glutathione was used in solution at 83.3 mg/mi (250 mg/3 ml).

[3] abbreviates: acid, pH approximately 3.7 (acetic acid).
The mark [4] stands for this setting: alkali, pH approximately 9.8 (sodium hydroxide).

For `Cl.N[C@@H](CS)C(=O)O` [L-cysteine, L-cysteine hydrochloride], the Rate/extent of reduction entry in data set [1] is reported as “no reduction”.

As to `O=S([O-])S(=O)(=O)[O-].[Na+].[Na+]` [sodium metabisulphite], the Rate/extent of reduction result in data set [1] is “no reduction”.

Regarding `O=C1O[C@H]([C@@H](O)CO)C(O)=C1O` [ascorbic acid], the Rate of reduction result in data set [2] is “reduced in about 10-15 minutes”; in data set [1] (setting [3]), “no change in rate compared to neutral”; in data set [1] (setting [4]), “no change in rate compared to neutral”. Also, the Rate/extent of reduction result in data set [1] is recorded as “reduced slowly over 10-15 minutes”.

For the molecule `CC(=O)N[C@@H](CS)C(=O)O` [N-acetyl-L-cysteine, N-acetyl L-cysteine], the Rate/extent of reduction result in data set [1] is listed as “partial reduction”.

On to `O=S([O-])S(=O)[O-].[Na+].[Na+]` [sodium hydrosulphite], for which, in data set [2], the Rate of reduction result is listed as “rapid reduction”. In addition, in data set [1], the Rate/extent of reduction entry is “very rapid reduction”.

In the case of `N[C@@H](CCC(=O)N[C@@H](CS)C(=O)NCC(=O)O)C(=O)O` [glutathione], the Rate of reduction result in data set [2] is listed as “no reduction”; in data set [1] (setting [3]), “no observable reduction (as with neutral)”; in data set [1] (setting [4]), “slight reduction over 10-15 minutes”. For the same molecule, the Rate/extent of reduction entry in data set [1] is on record as “no reduction over 15 minutes”.

Turning to `CSCC[C@H](N)C(=O)O` [methionine], in data set [1], the Rate/extent of reduction entry is “no reduction”.
